Laboratory results reported in patent publication US12077503B2, “Substituted cyclic amides and their use as herbicides” (FMC CORPORATION, priority 2015, dated 2024).

Experiments:
Assay type in all cases: in vivo
[1] = tested on: barnyardgrass (Echinochloa crus-galli); assay: Test B flooded paddy test; conditions: Flood, 250 g ai/ha; 0 to 100 scale where 0 is no effect and 100 is complete control; 13 to 15 d
How it was run: (§1)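 Greenhouse paddy pots with 2-leaf stage plants received compound by direct addition to floodwater 3 cm deep, kept at that level. Scored visually at 13–15 d versus controls (0 no effect; 100 complete control).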

rice (Oryra sativa) = assay: Test B flooded paddy test; conditions: Flood, 250 g ai/ha; 0 to 100 scale where 0 is no effect and 100 is complete control; 13 to 15 d
How it was run: as §1

[2] = tested on: sedge, umbrella (small-flower umbrella sedge, Cyperus difformis); assay: Test B flooded paddy test; conditions: Flood, 250 g ai/ha; 0 to 100 scale where 0 is no effect and 100 is complete control; 13 to 15 d
How it was run: as §1

[3] = tested on: ducksalad (Heteranthera limosa); assay: Test B flooded paddy test; conditions: Flood, 250 g ai/ha; 0 to 100 scale where 0 is no effect and 100 is complete control; 13 to 15 d
How it was run: as §1

[4] = tested on: barnyardgrass (Echinochloa crus-galli); assay: Test A preemergence; conditions: Preemergence; for Plant response rating, Barnyardgrass: 125 g ai/ha, visual injury after approximately 10 d, 0 to 100 scale where 0 is no effect and 100 is complete control; for Barnyardgrass plant response rating (0 to 100 scale, 0 is no effect, 100 is complete control): 500 g ai/ha, visual injury approx. 10 d
How it was run: (§2)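 Seeded soil received test chemicals as a preemergence directed spray, and seedlings at one to two leaves, 2–10 cm tall, received them postemergence, in a non-phytotoxic, surfactant-containing solvent mixture. Pots were held in a greenhouse for approximately 10 d, then rated for injury from 0, no effect, to 100, complete control.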

[5] = tested on: ryegrass, Italian (Italian ryegrass, Lolium multiflorum); assay: Test A preemergence; conditions: Preemergence; for Plant response rating, Ryegrass, Italian: 125 g ai/ha, visual injury after approximately 10 d, 0 to 100 scale where 0 is no effect and 100 is complete control; for Ryegrass, Italian plant response rating (0 to 100 scale, 0 is no effect, 100 is complete control): 500 g ai/ha, visual injury approx. 10 d
How it was run: as §2

[6] = tested on: giant foxtail (Setaria faberii); assay: Test A preemergence; conditions: Preemergence; for Plant response rating, Foxtail, Giant: 125 g ai/ha, visual injury after approximately 10 d, 0 to 100 scale where 0 is no effect and 100 is complete control; for Foxtail, Giant plant response rating (0 to 100 scale, 0 is no effect, 100 is complete control): 500 g ai/ha, visual injury approx. 10 d
How it was run: as §2

Kochia (Kochia scoparia) [7] = assay: Test A preemergence; conditions: Preemergence; for Plant response rating, Kochia: 125 g ai/ha, visual injury after approximately 10 d, 0 to 100 scale where 0 is no effect and 100 is complete control; for Kochia plant response rating (0 to 100 scale, 0 is no effect, 100 is complete control): 500 g ai/ha, visual injury approx. 10 d
How it was run: as §2

[8] = tested on: pigweed (Amaranthus retroflexus); assay: Test A preemergence; conditions: Preemergence; for Plant response rating, Pigweed: 125 g ai/ha, visual injury after approximately 10 d, 0 to 100 scale where 0 is no effect and 100 is complete control; for Pigweed plant response rating (0 to 100 scale, 0 is no effect, 100 is complete control): 500 g ai/ha, visual injury approx. 10 d
[9] = tested on: ragweed (common ragweed, Ambrosia elatior); assay: Test A preemergence; conditions: Preemergence; for Plant response rating, Ragweed: 125 g ai/ha, visual injury after approximately 10 d, 0 to 100 scale where 0 is no effect and 100 is complete control; for Ragweed plant response rating (0 to 100 scale, 0 is no effect, 100 is complete control): 500 g ai/ha, visual injury approx. 10 d
How it was run: as §2

[10] = tested on: barnyardgrass (Echinochloa crus-galli); assay: Test A postemergence; conditions: for Barnyardgrass plant response rating: 125 g ai/ha, postemergence, visual injury rating on 0 to 100 scale (0 no effect, 100 complete control), approx. 10 d; for Plant response rating, Barnyardgrass: Postemergence, 500 g ai/ha, 0 to 100 scale where 0 is no effect and 100 is complete control
How it was run: as §2

[11] = tested on: ryegrass, Italian (Italian ryegrass, Lolium multiflorum); assay: Test A postemergence
How it was run: as §2

[12] = tested on: wheat (Triticum aestivum); assay: Test A postemergence
How it was run: as §2

[13] = tested on: giant foxtail (Setaria faberii); assay: Test A postemergence
How it was run: as §2

[14] = tested on: Galium (catchweed bedstraw, Galium aparine); assay: Test A postemergence
How it was run: as §2

Kochia (Kochia scoparia) [15] = assay: Test A postemergence
How it was run: as §2

[16] = tested on: pigweed (Amaranthus retroflexus); assay: Test A postemergence
How it was run: as §2

[17] = tested on: blackgrass (Alopecurus myosuroides); assay: Test A postemergence; conditions: for Blackgrass plant response rating: 125 g ai/ha, postemergence, visual injury rating on 0 to 100 scale (0 no effect, 100 complete control), approx. 10 d; for Plant response rating, Blackgrass: Postemergence, 500 g ai/ha, 0 to 100 scale where 0 is no effect and 100 is complete control
How it was run: as §2

[18] = tested on: ragweed (common ragweed, Ambrosia elatior); assay: Test A postemergence
How it was run: as §2

corn (Zea mays) = assay: Test A postemergence
How it was run: as §2

[19] = 125 g ai/ha, postemergence, visual injury rating on 0 to 100 scale (0 no effect, 100 complete control), approx. 10 d
[20] = Postemergence, 500 g ai/ha, 0 to 100 scale where 0 is no effect and 100 is complete control
[21] = 125 g ai/ha, postemergence, visual rating after approx. 10 d, 0 to 100 scale (0 no effect, 100 complete control)

Structure (SMILES)	Plant response rating, Barnyardgrass [1]	Plant response rating, Rice (rice (Oryra sativa))	Plant response rating, Sedge, Umbrella [2]	Plant response rating, Ducksalad [3]	Plant response rating, Barnyardgrass [4]	Barnyardgrass plant response rating (0 to 100 scale, 0 is no effect, 100 is complete control) [4]	Plant response rating, Ryegrass, Italian [5]	Ryegrass, Italian plant response rating (0 to 100 scale, 0 is no effect, 100 is complete control) [5]	Plant response rating, Foxtail, Giant [6]	Foxtail, Giant plant response rating (0 to 100 scale, 0 is no effect, 100 is complete control) [6]	Plant response rating, Kochia (Kochia (Kochia scoparia) [7])	Kochia plant response rating (0 to 100 scale, 0 is no effect, 100 is complete control) (Kochia (Kochia scoparia) [7])	Plant response rating, Pigweed [8]	Pigweed plant response rating (0 to 100 scale, 0 is no effect, 100 is complete control) [8]	Plant response rating, Ragweed [9]	Ragweed plant response rating (0 to 100 scale, 0 is no effect, 100 is complete control) [9]	Barnyardgrass plant response rating [10]	Plant response rating, Barnyardgrass [10]	Plant response rating, Ryegrass, Italian [11, 20]	Plant response rating, Wheat [12, 20]	further results
Cc1ccc(C2CNC(=O)C2C(=O)Nc2ccc(F)cc2F)c(F)c1 (racemic) [Compound 508]	0	0	0	50	70	90	0	0	40	70	0	0	0	0	0	0	70	90	0	20	Ryegrass, Italian plant response rating [11, 19]: 0; Wheat plant response rating [12, 19]: 0; Foxtail, Giant plant response rating [13, 19]: 0; Plant response rating, Foxtail, Giant [13, 20]: 40; Galium plant response rating [14, 19]: 0; Plant response rating, Galium [14, 20]: 20; Kochia plant response rating (Kochia (Kochia scoparia) [15]; [19]): 0; Plant response rating, Kochia (Kochia (Kochia scoparia) [15]; [20]): 20; Pigweed plant response rating [16, 19]: 0; Plant response rating, Pigweed [16, 20]: 20; Blackgrass plant response rating [17]: 0; Plant response rating, Blackgrass [17]: 0; Ragweed plant response rating [18, 19]: 0; Plant response rating, Ragweed [18, 20]: 0; Corn plant response rating (corn (Zea mays); [19]): 0; Plant response rating, Corn (corn (Zea mays); [20]): 20
COc1c(F)ccc(NC(=O)C2C(=O)NCC2c2cc(F)cc(F)c2)c1F (racemic) [Compound 541]	35	0	0	75	90	90	0	20	90	90	0	20	0	0	0	0	90	90	40	80	Plant response rating, Ryegrass, Italian [11, 21]: 20; Plant response rating, Wheat [12, 21]: 20; Plant response rating, Foxtail, Giant [13, 21]: 80; Plant response rating, Foxtail, Giant [13, 20]: 90; Plant response rating, Galium [14, 21]: 30; Plant response rating, Galium [14, 20]: 50; Plant response rating, Kochia (Kochia (Kochia scoparia) [15]; [21]): 0; Plant response rating, Kochia (Kochia (Kochia scoparia) [15]; [20]): 30; Plant response rating, Pigweed [16, 21]: 0; Plant response rating, Pigweed [16, 20]: 0; Blackgrass plant response rating [17]: 30; Plant response rating, Blackgrass [17]: 60; Plant response rating, Ragweed [18, 21]: 0; Plant response rating, Ragweed [18, 20]: 30; Plant response rating, Corn (corn (Zea mays); [21]): 0; Plant response rating, Corn (corn (Zea mays); [20]): 60
